The record followed here is ChEMBL document CHEMBL4342525, “Synthesis and Biochemical Evaluation of Noncyclic Nucleotide Exchange Proteins Directly Activated by cAMP 1 (EPAC1) Regulators” (J Med Chem, 2020).

Each structure is given as a SMILES string. The source made the active and inactive calls. The rule behind the calls is not given here.

In series [1] the target is T1, Rap guanine nucleotide exchange factor 3 (Homo sapiens) (UniProt O95398).
T1 sequence (whole entry): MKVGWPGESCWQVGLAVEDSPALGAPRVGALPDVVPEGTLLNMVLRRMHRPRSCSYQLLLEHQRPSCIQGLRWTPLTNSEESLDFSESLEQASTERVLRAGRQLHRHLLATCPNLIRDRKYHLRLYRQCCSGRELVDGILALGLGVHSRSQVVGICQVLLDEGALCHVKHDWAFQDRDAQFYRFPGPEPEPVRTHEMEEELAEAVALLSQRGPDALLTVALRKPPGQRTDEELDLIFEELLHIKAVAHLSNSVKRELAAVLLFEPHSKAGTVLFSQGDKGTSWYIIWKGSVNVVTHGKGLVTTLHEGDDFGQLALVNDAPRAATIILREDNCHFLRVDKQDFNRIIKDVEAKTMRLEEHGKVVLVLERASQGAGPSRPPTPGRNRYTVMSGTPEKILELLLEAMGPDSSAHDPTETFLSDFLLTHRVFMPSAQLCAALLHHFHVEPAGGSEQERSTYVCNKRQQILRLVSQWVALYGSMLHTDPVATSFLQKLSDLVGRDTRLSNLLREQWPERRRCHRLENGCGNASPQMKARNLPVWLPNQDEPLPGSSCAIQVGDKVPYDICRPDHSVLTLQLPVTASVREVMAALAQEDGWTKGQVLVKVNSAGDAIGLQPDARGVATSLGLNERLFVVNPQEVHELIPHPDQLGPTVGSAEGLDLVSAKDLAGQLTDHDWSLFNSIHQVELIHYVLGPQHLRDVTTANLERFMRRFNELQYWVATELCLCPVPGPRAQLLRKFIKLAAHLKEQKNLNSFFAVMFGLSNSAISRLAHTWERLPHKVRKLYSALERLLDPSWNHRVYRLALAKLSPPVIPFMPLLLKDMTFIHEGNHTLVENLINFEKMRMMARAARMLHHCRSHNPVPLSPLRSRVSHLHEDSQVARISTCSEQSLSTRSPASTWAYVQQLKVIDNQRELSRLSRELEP
Nature of the series: Binding affinity to GST-tagged recombinant EPAC1 CNBD (169 to 318 residues) (unknown origin) expressed in Escherichia coli BL21 Star (DE3) assessed as relative fluorescence intensity incubated for 4 hrs by 8-NBD-cAMP competition binding assay relative to control. Set-up: concentration or dose not given beside the values.

Series [2] deals with T1, Rap guanine nucleotide exchange factor 3 (Homo sapiens). Briefly: Activation of EPAC1 in HUVEC assessed as reduction in IL-6-promoted signaling by measuring ICAM1 protein expression at 100 uM pre-incubated for 30 mins before IL6 and sIL6Ralpha stimulation for 5 hrs by Western blotting analysis. It counts as cell-based. (In general: A western blot detects proteins with antibodies after separation by electrophoresis.)

Series [3] has the same target. Nature of the series: Activation of EPAC1 in HUVEC assessed as reduction in IL-6-promoted signaling by measuring pAKT protein levels at 100 uM pre-incubated for 30 mins before IL6 and sIL6Ralpha stimulation for 5 hrs by Western blotting analysis. It counts as cell-based.
For series [4] the target is unchanged. Nature of the series: Activation of EPAC1 in HUVEC assessed as reduction in IL-6-promoted signaling by measuring SELE protein expression at 100 uM pre-incubated for 30 mins before IL6 and sIL6Ralpha stimulation for 5 hrs by Western blotting analysis. It counts as cell-based.
Series [5] has the same target. Briefly: Activation of recombinant EPAC1 (149 to 881 residues) (unknown origin) assessed as stimulation of dissociation of fluorescent MANT-GDP from recombinant Rap1b at 10 uM in presence of excess nonfluorescent nucleotides by fluorescence based in-vitro GEF assay relative to cAMP.
A short description of series [6]: Activation of PKA in human U2OS cells stably transfected with EPAC1 assessed as increase in VASP phosphorylation at 100 uM by Western blot analysis. It counts as cell-based.
Series [7] concerns the target T1, Rap guanine nucleotide exchange factor 3 (Homo sapiens). Briefly: Activation of EPAC1 in HUVEC assessed as reduction in IL-6-promoted signaling by measuring pERK protein levels at 100 uM pre-incubated for 30 mins before IL6 and sIL6Ralpha stimulation for 5 hrs by Western blotting analysis. It counts as cell-based.
For series [8] the target is unchanged. Briefly: Activation of EPAC1 in HUVEC assessed as reduction in IL-6-promoted signaling by measuring pSTAT3 protein levels at 100 uM pre-incubated for 30 mins before IL6 and sIL6Ralpha stimulation for 5 hrs by Western blotting analysis. It counts as cell-based.
Series [9] has the same target. Briefly: Activation of EPAC1 in HUVEC assessed as reduction in IL-6-promoted signaling by measuring VCAM1 protein expression at 100 uM pre-incubated for 30 mins before IL6 and sIL6Ralpha stimulation for 5 hrs by Western blotting analysis. It counts as cell-based.
Series [10] shares this target. Nature of the series: Activation of EPAC1 (unknown origin) expressed in U2OS cells at 100 uM incubated for 10 mins using GST-RalGDS-RBD by Western blot analysis based active GTP-bound Rap1 pull down assay. It counts as cell-based.
Series [11] concerns the target T2, Rap guanine nucleotide exchange factor 3 (Homo sapiens, UniProt O95398).
T2 sequence (O95398 whole entry): T1 sequence (whole entry)
Nature of the series: Binding affinity to GST-tagged recombinant EPAC1 CNBD (169 to 318 residues) (unknown origin) expressed in Escherichia coli BL21 Star (DE3) incubated for 4 hrs by 8-NBD-cAMP competition binding assay.

In the case of `Cc1cc(C)c(S(=O)(=O)NC(=O)C(F)Oc2ccc3ccccc3c2)c(C)c1` (stereo unspecified), the Activity in series [1] is 82%.

With `Nc1ccc(S(=O)(=O)NC(=O)COc2ccc3ccccc3c2)cc1F`, the result in [2], in series [3], in [4], in series [1], in series [7] and in series [8] was inactive. For the same compound, the outcome in series [9] was inactive. In addition, the result in series [5] and in series [10] was Active. The Activity result in series [6] is reported as “Not Active”.

For `Cc1cc(C)c(S(=O)(=O)N2CCC(Oc3ccc4ccccc4c3)CC2)c(C)c1`, the Activity in series [1] is 105%.

As for `Cc1cc(Br)cc(S(=O)(=O)NC(=O)COc2ccc3ccccc3c2)c1`, the Activity in series [1] was found to be 58%.

Consider `COc1cc2c(cc1OC)CN(CC(=O)NS(=O)(=O)c1c(C)cc(C)cc1C)CC2`, for which the Activity in series [1] is 102%.

As for `Cc1ccc(S(=O)(=O)NC(=O)COc2ccc3cc(F)ccc3c2)c(C)c1`, in series [1], the Activity was determined as 55%.

As for `Cc1cc(-c2ccco2)cc(S(=O)(=O)NC(=O)COc2ccc3ccccc3c2)c1`, the Activity in series [1] turned out to be 40%.

Turning to `Cc1ccc(S(=O)(=O)NC(=O)COc2ccc3cc(Cl)ccc3c2)c(C)c1`, the Activity in [1] was found to be 50%.

For `COc1ccc2ccc(OCC(=O)NS(=O)(=O)c3cc(C)cc(Br)c3)cc2c1`, the Activity in series [1] was 29%.

As to `Cc1cc(C)c(S(=O)(=O)NC(=O)CSc2ccc3ccccc3c2)c(C)c1`, in [1], the Activity came out at 92%.

As for `Cc1cc(C)c(S(=O)(=O)NC(=O)CN2CCc3ccccc3C2)c(C)c1`, the Activity in series [1] came out at 102%.

As to `Cc1ccc(S(=O)(=O)NC(=O)COc2ccc3ccc(Cl)cc3c2)c(C)c1`, the Activity in [1] is 66%.

As for `Cc1cc(Nc2ccc(C(F)(F)F)cn2)cc(S(=O)(=O)NC(=O)COc2ccc3ccccc3c2)c1`, the Activity in series [1] came to 20%.

For `Cc1ccc(S(=O)(=O)NCCOc2ccc3ccccc3c2)c(C)c1`, the Activity in [1] was found to be 81%.

Turning to `Cc1cc(C)c(S(=O)(=O)NC(=O)CNc2cccc(Cl)c2)c(C)c1`, the Activity in series [1] amounted to 88%.

As to `O=C(COc1ccc2ccccc2c1)NS(=O)(=O)c1ccccc1`, the Activity in series [1] was found to be 49%.

As for `O=C(COc1ccc2ccccc2c1)NS(=O)(=O)C1CCCCC1`, the Activity in [1] is 81%.

Regarding `COc1ccc(S(=O)(=O)NC(=O)COc2ccc3ccccc3c2)cc1OC`, the Activity in series [1] stood at 50%.

For `Cc1cc(C)c(S(=O)(=O)NC(=O)COc2ccc3c(c2)NC(=O)CC3)c(C)c1`, the Activity in series [1] turned out to be 77%.

Regarding `Cc1ccc(S(=O)(=O)NC(=O)C(C)(C)Oc2ccc3ccccc3c2)c(C)c1`, in series [1], the Activity came out at 76%.

With `COc1ccc2ccc(OCC(=O)NS(=O)(=O)c3ccc(OC)c(OC)c3)cc2c1`, the Activity in series [1] turned out to be 23%.

`COC(=O)c1cccc(S(=O)(=O)NC(=O)COc2ccc3ccccc3c2)c1`: in [1], the Activity was found to be 71%.

As for `Cc1cc(C)c(S(=O)(=O)NC(=O)CNc2ccc3ccccc3c2)c(C)c1`, the Activity in series [1] amounted to 97%.

As to `O=C(COc1ccc2ccccc2c1)NS(=O)(=O)c1cccc([N+](=O)[O-])c1`, the Activity in series [1] is 67%.

`Cc1cc(-c2cncc(F)c2)cc(S(=O)(=O)NC(=O)COc2ccc3ccccc3c2)c1`: the Activity in [1] came out at 36%.

Take `COc1ccc(OC)c(S(=O)(=O)NC(=O)COc2ccc3ccccc3c2)c1`: the Activity in series [1] was 72%.

As to `Cc1ccc(S(=O)(=O)NC(=O)COc2ccc3ccccc3c2)cc1`, the Activity in [1] stood at 44%.

As a reminder, the IC50 is the concentration that inhibits the measured activity by half. With `O=C(COc1ccc2ccccc2c1)NS(=O)(=O)c1ccc([N+](=O)[O-])c(F)c1`, the result in series [2], in [3], in series [4], in series [7], in series [8] and in [9] was inactive. In addition, the Activity was 81% in series [1] and “Not Active” in [6]. For the same compound, the outcome in series [5] and in series [10] was Active. In series [11], the IC50 came out at 32.5 µM.

Consider `O=C(COc1ccc2ccccc2c1)NS(=O)(=O)c1ccc(F)cc1`, for which, in series [1], the Activity is 81%.

On to `Cc1cc(-c2ccnn2C)cc(S(=O)(=O)NC(=O)COc2ccc3ccccc3c2)c1`, for which the Activity in series [1] is 34%.

On to `Cc1ccc(S(=O)(=O)NC(=O)COc2ccc3[nH]ccc3c2)c(C)c1`, for which the Activity in [1] was determined as 91%.

Take `Cc1cc(C)c(S(=O)(=O)NC(=O)CN2CCn3c(nnc3C(F)(F)F)C2)c(C)c1`: the Activity in series [1] came out at 104%.

Turning to `COc1ccc(OC)c(S(=O)(=O)NC(=O)COc2ccc3ccc(OC)cc3c2)c1`, in series [1], the Activity is 49%.

Regarding `Cc1cc(C)c(S(=O)(=O)NC(=O)COc2ccc3c(c2)CCCC3)c(C)c1`, in series [1], the Activity worked out at 77%.

On to `Cc1ccc(S(=O)(=O)NC(=O)COc2ccc3[nH]ncc3c2)c(C)c1`, for which the Activity in series [1] was 94%.

On to `O=C(COc1ccc2ccccc2c1)NS(=O)(=O)c1ccccc1F`, for which, in series [1], the Activity stood at 69%.

With `Cc1cc(C)c(S(=O)(=O)NC(=O)COc2ccc3ccccc3c2)c(C)c1`, the Activity in series [1] is 81%.

Regarding `Cc1cc(C)c(S(=O)(=O)NCCOc2ccc3ccccc3c2)c(C)c1`, the Activity in [1] turned out to be 105%.

For `Cc1cc(C)c(S(=O)(=O)NC(=O)COc2ccc3cccnc3c2)c(C)c1`, the Activity in series [1] came out at 92%.

As to `COc1ccc2ccc(OCC(=O)NS(=O)(=O)c3cc(Cl)cc(Cl)c3)cc2c1`, the Activity in [1] was 54%.

As to `Cc1cc(C)c(S(=O)(=O)NC(=O)CN2CCN(c3ccccn3)CC2)c(C)c1`, in series [1], the Activity turned out to be 119%.

With `COc1cccc(S(=O)(=O)NC(=O)COc2ccc3ccccc3c2)c1`, the Activity in [1] was determined as 33%.

`COc1ccc2ccc(OCC(=O)NS(=O)(=O)c3ccc([N+](=O)[O-])cc3OC)cc2c1`: the Activity in [1] was found to be 24%.

In the case of `O=C(COc1ccc2ccccc2c1)NS(=O)(=O)c1cccc(F)c1`, the Activity in series [1] stood at 82%.

Turning to `Cc1cc(C)c(S(=O)(=O)NC(=O)COc2cccc3ccccc23)c(C)c1`, the Activity in series [1] stood at 94%.

As for `O=C(COc1ccc2ccccc2c1)NS(=O)(=O)c1cccc(-c2ccccc2)c1`, the Activity in series [1] turned out to be 35%.

Consider `O=C(COc1ccc2ccccc2c1)NS(=O)(=O)c1cccc(-c2ccoc2)c1`, for which, in series [1], the Activity was determined as 53%.

`Cc1ccc(S(=O)(=O)NC(=O)COc2cccc3ccccc23)c(C)c1`: the Activity in [1] worked out at 71%.

Consider `COc1ccc2ccc(OCC(=O)NS(=O)(=O)c3c(C)cc(C)cc3C)cc2c1`, for which the Activity in series [1] is 49%.

For `Cc1cc(C)cc(S(=O)(=O)NC(=O)COc2ccc3ccccc3c2)c1`, in series [1], the Activity came to 38%.

In the case of `Cc1cc(C)c(S(=O)(=O)NC(=O)CSc2nc3ccccc3c(=O)[nH]2)c(C)c1`, the Activity in series [1] stood at 95%.

Regarding `CC(=O)c1c(OCC(=O)NS(=O)(=O)c2c(C)cc(C)cc2C)ccc2ccccc12`, the Activity in series [1] was found to be 104%.
